Here are results for six molecules from patent US20210113568A1, “PREVENTIVE AND/OR THERAPEUTIC AGENT FOR AUTOIMMUNE DISEASE COMPRISING COMPOUND HAVING Btk INHIBITORY ACTIVITY AS ACTIVE INGREDIENT” (ONO PHARMACEUTICAL CO., LTD., priority 2018, published 2021).

The subject of one assay is human neutrophils. Kind of assay: Measurement of activation of human neutrophils (NETs formation, SYTOX Green fluorescence, immune complex stimulation). It counts as cell-based. To be noted: Neutrophil, immobilized HSA/anti-HSA immune complex, 1 hour preincubation, 4 hours at 37° C. The protocol: Human serum albumin (HSA) (Sigma) was immobilized on a 96-well plate and anti-HSA antibody (Sigma) was added to form an immune complex. Blocking was performed with 10% fetal bovine serum (FBS), and the plate was then used for neutrophil activation.
Various compounds having a Btk inhibitory activity were used as the test compounds. The test compound was dissolved in DMSO and dilution with RPMI 1640 culture medium (10% FBS, contained 1% penicillin/streptomycin) was then performed to prepare a test compound solution with a concentration 11-times that of the final concentration. 180 μL of a culture medium-diluted human neutrophil suspension was added to 20 μL of the 11×-concentration test compound solution, or the medium (1.1% DMSO), and incubation was performed for 1 hour at room temperature.
20 μL of a 50 μM SYTOX Green solution (Thermo Fisher Scientific Inc.) was then added to the plate bearing the immobilized immune complex; 180 μL (1×10^5 cells/well) of the test compound-treated neutrophil suspension was added; and incubation was carried out for 4 hours at 37° C. and 5% CO2. The relative fluorescence units of the SYTOX Green bound to NETs from the neutrophils were measured using a microplate reader (Molecular Devices) and conditions of an excitation wavelength of 475 nm and a fluorescence wavelength of 523 nm. The percent inhibition (%) for the test compound was calculated using the formula given below. The percent inhibition (%) was graphically plotted using Prism (ver. 5.04, GraphPad Software) and the IC50 value was determined.
A: relative fluorescence units when the test compound was added B: relative fluorescence units at the time of stimulation C: relative fluorescence units without stimulation
`C=CC(=O)N1CCC[C@@H](n2nc(-c3ccc(Oc4ccccc4)cc3)c3c(N)ncnc32)C1` [ibrutinib] had an IC50 of 3.6 nM.

Molecule `CC#CC(=O)N1CC[C@@H](n2c(=O)n(-c3ccc(Oc4ccccc4)cc3)c3c(N)ncnc32)C1` [tirabrutinib, 6-amino-9-[(3R)-1-(buta-2-ynoyl)pyrrolidin-3-yl]-7-(4-phenoxyphenyl)-7,9-dihydro-8H-purin-8-one] displayed an IC50 of 22 nM.

Regarding `Cc1c(-c2c(F)cc(C(N)=O)c3[nH]c4c(c23)CC[C@H](C(C)(C)O)C4)cccc1-n1c(=O)c2cccc(F)c2n(C)c1=O` [BMS-986142], the IC50 was found to be 44 nM.

On to `CC#CC(=O)N1CCC[C@H]1c1nc(-c2ccc(C(=O)Nc3ccccn3)cc2)c2c(N)nccn12` [acalabrutinib], for which the IC50 is 84 nM.

As for `C[C@H]1CN(C2COC2)CCN1c1ccc(Nc2cc(-c3ccnc(N4CCn5c(cc6c5CC(C)(C)C6)C4=O)c3CO)cn(C)c2=O)nc1` [fenebrutinib], half-maximal inhibition (IC50) was put at 62 nM.

Still in this assay, the particulars now being: Neutrophil, immobilized HSA/anti-HSA immune complex, 1 hour preincubation, 4 hours at 37° C., unit given as M.
In turn, `C=CC(=O)N1CCC(CNc2ncnc(N)c2-c2ccc(Oc3ccccc3)cc2)CC1` [evobrutinib] registered an IC50 of 57 nM.

A word on the IC50: it is the point on the concentration scale where inhibition reaches its midpoint.
